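Values below derive from 48-hour exposures of cells grown in 96-well plates, with endpoints linearly interpolated between the two concentrations bracketing the appropriate inhibition level. At the TGI there is no net growth.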
Tests used:
Experiment in all cases: NCI tumour cell line growth inhibition, 48 h
UO-31 renal = test system: UO-31 renal
HCT-15 colon = test system: HCT-15 colon
SK-OV-3 ovarian = test system: SK-OV-3 ovarian
SW-620 colon = test system: SW-620 colon
T-47D breast = test system: T-47D breast
LOX IMVI melanoma = test system: LOX IMVI melanoma
HCT-116 colon = test system: HCT-116 colon
786-0 renal = test system: 786-0 renal
BT-549 breast = test system: BT-549 breast
SK-MEL-28 melanoma = test system: SK-MEL-28 melanoma
NCI-H23 lung = test system: NCI-H23 lung
ACHN renal = test system: ACHN renal
MALME-3M melanoma = test system: MALME-3M melanoma
UACC-62 melanoma = test system: UACC-62 melanoma
NCI-H522 lung = test system: NCI-H522 lung
HOP-62 NSCLC = test system: HOP-62 NSCLC
OVCAR-4 ovarian = test system: OVCAR-4 ovarian
K-562 leukemia = test system: K-562 leukemia
SNB-19 CNS = test system: SNB-19 CNS
RXF 393 renal = test system: RXF 393 renal
SNB-75 CNS = test system: SNB-75 CNS
A498 renal = test system: A498 renal
HOP-92 NSCLC = test system: HOP-92 NSCLC
OVCAR-8 ovarian = test system: OVCAR-8 ovarian
OVCAR-3 ovarian = test system: OVCAR-3 ovarian
HL-60(TB) leukemia = test system: HL-60(TB) leukemia
KM12 colon = test system: KM12 colon
SF-268 CNS = test system: SF-268 CNS
M14 melanoma = test system: M14 melanoma
NCI/ADR-RES ovarian = test system: NCI/ADR-RES ovarian
COLO 205 colon = test system: COLO 205 colon
IGROV1 ovarian = test system: IGROV1 ovarian
MDA-MB-231 breast = test system: MDA-MB-231 breast
HCC-2998 colon = test system: HCC-2998 colon
TK-10 renal = test system: TK-10 renal
MOLT-4 leukemia = test system: MOLT-4 leukemia
U251 CNS = test system: U251 CNS
EKVX NSCLC = test system: EKVX NSCLC
SK-MEL-5 melanoma = test system: SK-MEL-5 melanoma
DU-145 prostate = test system: DU-145 prostate
NCI-H460 lung = test system: NCI-H460 lung
MCF7 breast = test system: MCF7 breast
NCI-H226 lung = test system: NCI-H226 lung
CCRF-CEM leukemia = test system: CCRF-CEM leukemia
OVCAR-5 ovarian = test system: OVCAR-5 ovarian
SF-295 CNS = test system: SF-295 CNS
MDA-MB-435 = test system: MDA-MB-435
PC-3 prostate = test system: PC-3 prostate
A549 NSCLC = test system: A549 NSCLC
HT29 colon = test system: HT29 colon
UACC-257 melanoma = test system: UACC-257 melanoma
MDA-N = test system: MDA-N
CAKI-1 renal = test system: CAKI-1 renal
SR leukemia = test system: SR leukemia
SN12C renal = test system: SN12C renal
SF-539 CNS = test system: SF-539 CNS
SK-MEL-2 melanoma = test system: SK-MEL-2 melanoma
RPMI-8226 leukemia = test system: RPMI-8226 leukemia

Compound: CC1(C)Cc2c(cnn2-c2ccc(C(F)(F)F)cc2)-c2nc(-c3ccc(O)cc3)[nH]c21
- TGI (UO-31 renal): 36.2 µM
- TGI (HCT-15 colon): 25.8 µM
- TGI (SK-OV-3 ovarian): 45.3 µM
- TGI (SW-620 colon): 51.5 µM
- TGI (T-47D breast): 38.5 µM
- TGI (LOX IMVI melanoma): 43 µM
- TGI (HCT-116 colon): 28.4 µM
- TGI (786-0 renal): 12.6 µM
- TGI (BT-549 breast): 28.5 µM
- TGI (SK-MEL-28 melanoma): 30.9 µM
- TGI (NCI-H23 lung): 41.2 µM
- TGI (ACHN renal): 28.5 µM
- TGI (MALME-3M melanoma): 29.7 µM
- TGI (UACC-62 melanoma): 31 µM
- TGI (NCI-H522 lung): 26.2 µM
- TGI (HOP-62 NSCLC): 39.6 µM
- TGI (OVCAR-4 ovarian): 29.2 µM
- TGI (K-562 leukemia): 70.2 µM
- TGI (SNB-19 CNS): 86.1 µM
- TGI (RXF 393 renal): 15.6 µM
- TGI (SNB-75 CNS): 21 µM
- TGI (A498 renal): 43.7 µM
- TGI (HOP-92 NSCLC): 45.1 µM
- TGI (OVCAR-8 ovarian): 58.2 µM
- TGI (OVCAR-3 ovarian): 29.4 µM
- TGI (HL-60(TB) leukemia): 23 µM
- TGI (KM12 colon): 33.9 µM
- TGI (SF-268 CNS): 28.5 µM
- TGI (M14 melanoma): 33.9 µM
- TGI (NCI/ADR-RES ovarian): 45 µM
- TGI (COLO 205 colon): 35.6 µM
- TGI (IGROV1 ovarian): 40.1 µM
- TGI (MDA-MB-231 breast): 40.7 µM
- TGI (HCC-2998 colon): 30 µM
- TGI (TK-10 renal): 35.3 µM
- TGI (MOLT-4 leukemia): 22.7 µM
- TGI (U251 CNS): 25.2 µM
- TGI (EKVX NSCLC): 42.9 µM
- TGI (SK-MEL-5 melanoma): 34 µM
- TGI (DU-145 prostate): 31.6 µM
- TGI (NCI-H460 lung): 33.2 µM
- TGI (MCF7 breast): 30.7 µM
- TGI (NCI-H226 lung): 52.3 µM
- TGI (CCRF-CEM leukemia): 11.2 µM
- TGI (OVCAR-5 ovarian): 39.1 µM
- TGI (SF-295 CNS): 38 µM
- TGI (MDA-MB-435): 37.8 µM
- TGI (PC-3 prostate): 33.3 µM
- TGI (A549 NSCLC): 38.6 µM
- TGI (HT29 colon): 17.4 µM
- TGI (UACC-257 melanoma): 34.4 µM
- TGI (MDA-N): 38.6 µM
- TGI (CAKI-1 renal): 34.6 µM
- TGI (SR leukemia): 28.7 µM
- TGI (SN12C renal): 31.8 µM

Compound: COc1ccc(/C=C2/SC(c3ccc(Cl)cc3)N(NC(=O)CCCCCCCCC(=O)NN3C(=O)/C(=C\c4ccc(OC)c(OC)c4)SC3c3ccc(Cl)cc3)C2=O)cc1OC (stereo not drawn)
- TGI (UO-31 renal): > 100 µM
- TGI (HCT-15 colon): > 100 µM
- TGI (SK-OV-3 ovarian): > 100 µM
- TGI (SW-620 colon): > 100 µM
- TGI (T-47D breast): > 100 µM
- TGI (HCT-116 colon): > 100 µM
- TGI (786-0 renal): 76.8 µM
- TGI (BT-549 breast): > 100 µM
- TGI (SK-MEL-28 melanoma): > 100 µM
- TGI (NCI-H23 lung): 47.1 µM
- TGI (ACHN renal): > 100 µM
- TGI (UACC-62 melanoma): 89.3 µM
- TGI (HOP-62 NSCLC): 57.9 µM
- TGI (OVCAR-4 ovarian): > 100 µM
- TGI (K-562 leukemia): > 100 µM
- TGI (SNB-19 CNS): > 100 µM
- TGI (SF-539 CNS): 85.5 µM
- TGI (RXF 393 renal): 70.7 µM
- TGI (SNB-75 CNS): > 100 µM
- TGI (A498 renal): 82.1 µM
- TGI (HOP-92 NSCLC): 48.8 µM
- TGI (OVCAR-8 ovarian): > 100 µM
- TGI (OVCAR-3 ovarian): > 100 µM
- TGI (KM12 colon): > 100 µM
- TGI (SK-MEL-2 melanoma): > 100 µM
- TGI (SF-268 CNS): > 100 µM
- TGI (M14 melanoma): > 100 µM
- TGI (NCI/ADR-RES ovarian): > 100 µM
- TGI (COLO 205 colon): > 100 µM
- TGI (IGROV1 ovarian): 59.8 µM
- TGI (MDA-MB-231 breast): > 100 µM
- TGI (HCC-2998 colon): > 100 µM
- TGI (TK-10 renal): > 100 µM
- TGI (MOLT-4 leukemia): > 100 µM
- TGI (U251 CNS): > 100 µM
- TGI (EKVX NSCLC): 78.7 µM
- TGI (SK-MEL-5 melanoma): > 100 µM
- TGI (DU-145 prostate): > 100 µM
- TGI (NCI-H460 lung): > 100 µM
- TGI (MCF7 breast): > 100 µM
- TGI (NCI-H226 lung): > 100 µM
- TGI (OVCAR-5 ovarian): > 100 µM
- TGI (RPMI-8226 leukemia): > 100 µM
- TGI (SF-295 CNS): 59.9 µM
- TGI (MDA-MB-435): > 100 µM
- TGI (PC-3 prostate): > 100 µM
- TGI (A549 NSCLC): > 100 µM
- TGI (HT29 colon): > 100 µM
- TGI (UACC-257 melanoma): > 100 µM
- TGI (MDA-N): 98.4 µM
- TGI (CAKI-1 renal): > 100 µM
- TGI (SR leukemia): > 100 µM
- TGI (SN12C renal): > 100 µM

Compound: O=C1/C(=C/c2ccco2)N=C(c2ccccc2)N1c1ccc(S(=O)(=O)Nc2nccs2)cc1
- TGI (UO-31 renal): > 100 µM
- TGI (HCT-15 colon): 94.5 µM
- TGI (SK-OV-3 ovarian): > 100 µM
- TGI (SW-620 colon): > 100 µM
- TGI (T-47D breast): > 100 µM
- TGI (LOX IMVI melanoma): > 100 µM
- TGI (HCT-116 colon): > 100 µM
- TGI (786-0 renal): > 100 µM
- TGI (BT-549 breast): > 100 µM
- TGI (NCI-H23 lung): > 100 µM
- TGI (ACHN renal): > 100 µM
- TGI (MALME-3M melanoma): > 100 µM
- TGI (UACC-62 melanoma): > 100 µM
- TGI (NCI-H522 lung): > 100 µM
- TGI (HOP-62 NSCLC): > 100 µM
- TGI (OVCAR-4 ovarian): > 100 µM
- TGI (K-562 leukemia): > 100 µM
- TGI (SF-539 CNS): > 100 µM
- TGI (RXF 393 renal): > 100 µM
- TGI (SNB-75 CNS): > 100 µM
- TGI (HOP-92 NSCLC): > 100 µM
- TGI (OVCAR-8 ovarian): > 100 µM
- TGI (OVCAR-3 ovarian): > 100 µM
- TGI (HL-60(TB) leukemia): > 100 µM
- TGI (KM12 colon): > 100 µM
- TGI (SK-MEL-2 melanoma): > 100 µM
- TGI (SF-268 CNS): > 100 µM
- TGI (M14 melanoma): > 100 µM
- TGI (NCI/ADR-RES ovarian): > 100 µM
- TGI (COLO 205 colon): > 100 µM
- TGI (IGROV1 ovarian): > 100 µM
- TGI (MDA-MB-231 breast): > 100 µM
- TGI (HCC-2998 colon): > 100 µM
- TGI (TK-10 renal): > 100 µM
- TGI (MOLT-4 leukemia): > 100 µM
- TGI (U251 CNS): > 100 µM
- TGI (EKVX NSCLC): > 100 µM
- TGI (SK-MEL-5 melanoma): > 100 µM
- TGI (DU-145 prostate): > 100 µM
- TGI (NCI-H460 lung): > 100 µM
- TGI (MCF7 breast): > 100 µM
- TGI (NCI-H226 lung): > 100 µM
- TGI (CCRF-CEM leukemia): > 100 µM
- TGI (OVCAR-5 ovarian): > 100 µM
- TGI (RPMI-8226 leukemia): > 100 µM
- TGI (SF-295 CNS): > 100 µM
- TGI (MDA-MB-435): > 100 µM
- TGI (PC-3 prostate): > 100 µM
- TGI (A549 NSCLC): > 100 µM
- TGI (HT29 colon): > 100 µM
- TGI (UACC-257 melanoma): 89.5 µM
- TGI (MDA-N): > 100 µM
- TGI (CAKI-1 renal): > 100 µM
- TGI (SR leukemia): > 100 µM
- TGI (SN12C renal): > 100 µM

Source: PubChem BioAssay (NCI)
